# Test: Partition coefficient (logP)
# Type: physicochemical
# Settings: octanol/water
row,SMILES,logP
1,CN(C)c1ccc(-c2cc(-c3ccccc3)[s+]c(-c3ccc(N(C)C)cc3)c2)cc1,2.5
2,CN(C)c1ccc(-c2cc(-c3ccccc3)[te+]c(-c3ccc(N(C)C)cc3)c2)cc1,2.5
3,CN(C)c1ccc(-c2cc(-c3ccccc3)[s+]c(-c3ccc(N)cc3)c2)cc1,0
4,CN(C)c1ccc(-c2cc(-c3ccccc3)[te+]c(-c3ccc(N)cc3)c2)cc1,0.5

# Now from value to molecule:
row,logP,SMILES
1,0.8,CN(C)c1ccc(-c2cc(-c3ccccc3)[se+]c(-c3ccc(N)cc3)c2)cc1
2,2.4,CN(C)c1ccc(-c2cc(-c3ccccc3)[se+]c(-c3ccc(N(C)C)cc3)c2)cc1
